In patent US8247211B2, “Glycopeptide antibiotics” (American Cyanamid Company, priority 2001, dated 2012):
Values after ≈ are worked out from the molar mass of the structure shown.

Legend:
[1] = test system: Streptococcus sp.; experiment: In vitro antibacterial evaluation: minimum inhibitory concentration (MIC), broth dilution method; type: cell-based; details: for MIC Streptococcus agalactiae (GC 4564): strain GC 4564
Outline: (§1)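 First, organisms are seeded at 5×10^5 CFU/mL into Muller-Hinton II […]. Next, antibiotic is applied across 64-0.06 μg/mL by broth dilution (NCCLS M7-A2). Finally, the lowest inhibitory concentration is recorded as MIC.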

[2] = test system: Escherichia coli; experiment: as above; type: cell-based; details: for MIC Escherichia coli (ATCC 25922): strain ATCC 25922; for MIC Escherichia coli (GC 4559): strain GC 4559; for MIC Escherichi coli (GC 4560): strain GC 4560
Outline: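 Using Muller-Hinton II […] and an inoculum of 5×10^5 CFU/mL, antibiotic dilutions from 64 down to 0.06 μg/mL were tested following NCCLS M7-A2. The MIC is the lowest concentration inhibiting growth, including in methicillin-, penicillin- or vancomycin-resistant clinical isolates.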

[3] = test system: Staphylococcus sp.; experiment: as above; type: cell-based; details: broth dilution, 18 hours at 35° C.
Outline: as §1

[4] = test system: Enterococcus sp.; experiment: as above; type: cell-based; details: for MIC Enterococcus faecalis (GC 2691): strain GC 2691
Outline: as §1

[5] = test system: Staphylococcus aureus-SMITH (GC 4543); experiment: Acute lethal infection in mice (ED50); type: in vivo; details: female CD-1 mice, intraperitoneal challenge, intravenous dose 30 min. after infection, 7 day survival ratios
Outline: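 Groups of five female CD-1 mice per dose got intravenous antibiotic in saline or 5% dextrose half an hour after intraperitoneal infection sufficient to kill controls within 24-48 hr. Seven-day survival data from three experiments were combined to derive ED50.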

CC(c1ccccc1)C1NC(=O)CNC(=O)C(CO)NC(=O)C(C(O)C2CNC(=N)N2C2OC(CO)C(O)C(O)C2O)NC(=O)C(C(O)C2CNC(=N)N2)NC(=O)C(Cc2ccc(OC3OC(CO)C(OC4OC5COC(c6ccc7c(c6)OCO7)OC5C(O)C4O)C(O)C3O)cc2)NC1=O (stereo not drawn) [Example 143, Cyclo[glycyl-β-methylphenylalanyl-O-[4-O-[4,6-O-(1,3-benzodioxol-5-ylmethylene)hexopyranosyl]hexopyranosyl]tyrosyl-3-(2-iminoimidazolidin-4-yl)seryl-3-(3-hexopyranosyl-2-iminoimidazolidin-4-yl)serylseryl]]
MIC Streptococcus agalactiae (GC 4564) [1]: 0.5 to 1 µg/mL
MIC Escherichia coli (ATCC 25922) [2]: >64 µg/mL
MIC Escherichia coli (GC 4559) [2]: 64 µg/mL (≈ 44.8 µM)
MIC Escherichi coli (GC 4560) [2]: 1 to 2 µg/mL
MIC Coagulase Negative Staphylococcus (GC 4547) ([3]; 5×10^5 CFU/mL): 1 to 2 µg/mL
MIC Coagulase Negative Staphylococcus (GC 4548) ([3]; 5×10^5 CFU/mL): 1 to 2 µg/mL
MIC Coagulase Negative Staphylococcus (GC 4549) ([3]; 5×10^5 CFU/mL): 1 µg/mL (≈ 0.701 µM)
MIC Coagulase Negative Staphylococcus (GC 4551) ([3]; 5×10^5 CFU/mL): 2 to 4 µg/mL
MIC Coagulase Negative Staphylococcus (GC 6257) ([3]; 5×10^5 CFU/mL): 1 to 2 µg/mL
MIC Staphylococcus aureus (ATCC 29213) ([3]; 5×10^5 CFU/mL): 2 to 4 µg/mL
MIC Staphylococcus aureus (GC 1131) ([3]; 5×10^5 CFU/mL): 2 to 4 µg/mL
MIC Staphylococcus aureus (GC 3051) ([3]; 5×10^5 CFU/mL): 2 to 4 µg/mL
MIC Staphylococcus aureus (GC 3053) ([3]; 5×10^5 CFU/mL): 4 to 8 µg/mL
MIC Staphylococcus aureus (GC 4541) ([3]; 5×10^5 CFU/mL): 2 to 4 µg/mL
MIC Staphylococcus aureus (GC 4542) ([3]; 5×10^5 CFU/mL): 1 to 4 µg/mL
MIC Staphylococcus aureus (GC 4544) ([3]; 5×10^5 CFU/mL): 2 to 8 µg/mL
MIC Staphylococcus aureus (GC 4545) ([3]; 5×10^5 CFU/mL): 2 to 4 µg/mL
MIC Staphylococcus aureus-SMITH (GC 4543) ([3]; 5×10^5 CFU/mL): 2 to 4 µg/mL
MIC Staphylococcus haemolyticus (GC 4546) ([3]; 5×10^5 CFU/mL): 0.5 to 2 µg/mL
MIC Staphylococcus aureus (ATCC 29213) ([3]; strain ATCC 29213): 2 to 4 µg/mL
MIC Staphylococcus aureus (GC 1131) ([3]; strain GC 1131): 2 to 4 µg/mL
MIC Staphylococcus aureus (GC 3051) ([3]; strain GC 3051): 2 to 4 µg/mL
MIC Staphylococcus aureus (GC 3053) ([3]; strain GC 3053): 4 to 8 µg/mL
MIC Staphylococcus aureus (GC 4541) ([3]; strain GC 4541): 2 to 4 µg/mL
MIC Staphylococcus aureus (GC 4542) ([3]; strain GC 4542): 1 to 4 µg/mL
MIC Staphylococcus aureus-SMITH (GC 4543) ([3]; strain GC 4543): 2 to 4 µg/mL
MIC Staphylococcus aureus (GC 4544) ([3]; strain GC 4544): 2 to 8 µg/mL
MIC Staphylococcus aureus (GC 4545) ([3]; strain GC 4545): 2 to 4 µg/mL
MIC Staphylococcus haemolyticus (GC 4546) ([3]; strain GC 4546): 0.5 to 2 µg/mL
MIC Coagulase Negative Staphylococcus (GC 4547) ([3]; strain GC 4547): 1 to 2 µg/mL
MIC Coagulase Negative Staphylococcus (GC 4548) ([3]; strain GC 4548): 1 to 2 µg/mL
MIC Coagulase Negative Staphylococcus (GC 4549) ([3]; strain GC 4549): 1 µg/mL (≈ 0.701 µM)
MIC Coagulase Negative Staphylococcus (GC 4551) ([3]; strain GC 4551): 2 to 4 µg/mL
MIC Coagulase Negative Staphylococcus (GC 6257) ([3]; strain GC 6257): 1 to 2 µg/mL
MIC Enterococcus faecalis (GC 2691) [4]: 8 µg/mL (≈ 5.6 µM)
MIC Enterococcus faecium (GC 4557) ([4]; strain GC 4557): 2 to 8 µg/mL
median effective dose (ED50), Staphylococcus aureus-SMITH (GC 4543) [5]: 0.28 mg/kg

CC(c1ccccc1)C1NC(=O)CNC(=O)C(CO)NC(=O)C(C(O)C2CNC(=N)N2C2OC(CO)C(O)C(O)C2O)NC(=O)C(C(O)C2CNC(=N)N2)NC(=O)C(Cc2ccc(OC3OC(CO)C(OC4OC5COC(c6cccc(-c7ccccc7)c6)OC5C(O)C4O)C(O)C3O)cc2)NC1=O (stereo not drawn) [Example 154, Cyclo[glycyl-β-methylphenylalanyl-O-[4-O-[4,6-O-(3-phenylbenzylidene)hexopyranosyl)-hexopyranosyl]tyrosyl-3-(2-iminoimidazolidin-4-yl)seryl-3-(3-hexopyranosyl-2-iminoimidazolidin-4-yl)serylseryl]]
MIC Streptococcus pneumoniae (ATCC 6301) ([1]; strain ATCC 6301): <0.06 µg/mL
MIC Streptococcus pneumoniae (GC 1894) ([1]; strain GC 1894): <0.06 µg/mL
MIC Streptococcus pyogenes (GC 4563) ([1]; strain GC 4563): <0.06 µg/mL
MIC Streptococcus agalactiae (GC 4564) [1]: <0.06 µg/mL
MIC Streptococcus pneumoniae (GC 4565) ([1]; strain GC 4565): <0.06 µg/mL
MIC Escherichia coli (ATCC 25922) [2]: 32 µg/mL (≈ 21.9 µM)
MIC Escherichia coli (GC 4559) [2]: 32 µg/mL (≈ 21.9 µM)
MIC Escherichi coli (GC 4560) [2]: 2 µg/mL (≈ 1.37 µM)
MIC Coagulase Negative Staphylococcus (GC 4547) ([3]; 5×10^5 CFU/mL): 2 µg/mL (≈ 1.37 µM)
MIC Coagulase Negative Staphylococcus (GC 4548) ([3]; 5×10^5 CFU/mL): 0.5 µg/mL (≈ 0.343 µM)
MIC Coagulase Negative Staphylococcus (GC 4549) ([3]; 5×10^5 CFU/mL): 0.25 µg/mL (≈ 0.171 µM)
MIC Coagulase Negative Staphylococcus (GC 4551) ([3]; 5×10^5 CFU/mL): 2 µg/mL (≈ 1.37 µM)
MIC Coagulase Negative Staphylococcus (GC 6257) ([3]; 5×10^5 CFU/mL): 1 µg/mL (≈ 0.685 µM)
MIC Staphylococcus aureus (ATCC 29213) ([3]; 5×10^5 CFU/mL): 1 µg/mL (≈ 0.685 µM)
MIC Staphylococcus aureus (GC 1131) ([3]; 5×10^5 CFU/mL): 1 µg/mL (≈ 0.685 µM)
MIC Staphylococcus aureus (GC 3051) ([3]; 5×10^5 CFU/mL): 1 µg/mL (≈ 0.685 µM)
MIC Staphylococcus aureus (GC 3053) ([3]; 5×10^5 CFU/mL): 2 µg/mL (≈ 1.37 µM)
MIC Staphylococcus aureus (GC 4541) ([3]; 5×10^5 CFU/mL): 1 µg/mL (≈ 0.685 µM)
MIC Staphylococcus aureus (GC 4542) ([3]; 5×10^5 CFU/mL): 1 µg/mL (≈ 0.685 µM)
MIC Staphylococcus aureus (GC 4544) ([3]; 5×10^5 CFU/mL): 2 µg/mL (≈ 1.37 µM)
MIC Staphylococcus aureus (GC 4545) ([3]; 5×10^5 CFU/mL): 1 µg/mL (≈ 0.685 µM)
MIC Staphylococcus aureus-SMITH (GC 4543) ([3]; 5×10^5 CFU/mL): 1 µg/mL (≈ 0.685 µM)
MIC Staphylococcus haemolyticus (GC 4546) ([3]; 5×10^5 CFU/mL): 1 µg/mL (≈ 0.685 µM)
MIC Staphylococcus aureus (ATCC 29213) ([3]; strain ATCC 29213): 1 µg/mL (≈ 0.685 µM)
MIC Staphylococcus aureus (GC 1131) ([3]; strain GC 1131): 1 µg/mL (≈ 0.685 µM)
MIC Staphylococcus aureus (GC 3051) ([3]; strain GC 3051): 1 µg/mL (≈ 0.685 µM)
MIC Staphylococcus aureus (GC 3053) ([3]; strain GC 3053): 2 µg/mL (≈ 1.37 µM)
MIC Staphylococcus aureus (GC 4541) ([3]; strain GC 4541): 1 µg/mL (≈ 0.685 µM)
MIC Staphylococcus aureus (GC 4542) ([3]; strain GC 4542): 1 µg/mL (≈ 0.685 µM)
MIC Staphylococcus aureus-SMITH (GC 4543) ([3]; strain GC 4543): 1 µg/mL (≈ 0.685 µM)
MIC Staphylococcus aureus (GC 4544) ([3]; strain GC 4544): 2 µg/mL (≈ 1.37 µM)
MIC Staphylococcus aureus (GC 4545) ([3]; strain GC 4545): 1 µg/mL (≈ 0.685 µM)
MIC Staphylococcus haemolyticus (GC 4546) ([3]; strain GC 4546): 1 µg/mL (≈ 0.685 µM)
MIC Coagulase Negative Staphylococcus (GC 4547) ([3]; strain GC 4547): 2 µg/mL (≈ 1.37 µM)
MIC Coagulase Negative Staphylococcus (GC 4548) ([3]; strain GC 4548): 0.5 µg/mL (≈ 0.343 µM)
MIC Coagulase Negative Staphylococcus (GC 4549) ([3]; strain GC 4549): 0.25 µg/mL (≈ 0.171 µM)
MIC Coagulase Negative Staphylococcus (GC 4551) ([3]; strain GC 4551): 2 µg/mL (≈ 1.37 µM)
MIC Coagulase Negative Staphylococcus (GC 6257) ([3]; strain GC 6257): 1 µg/mL (≈ 0.685 µM)
MIC Enterococcus avium (GC 4558) ([4]; Enterococcus avium (GC 4558), broth dilution, 18 hours at 35° C.): 1 µg/mL (≈ 0.685 µM)
MIC Enterococcus faecalis (ATCC 29212) ([4]; Enterococcus faecalis (ATCC 29212), broth dilution, 18 hours at 35° C.): 2 µg/mL (≈ 1.37 µM)
MIC Enterococcus faecalis (GC 4552) ([4]; Enterococcus faecalis (GC 4552), broth dilution, 18 hours at 35° C.): 2 µg/mL (≈ 1.37 µM)
MIC Enterococcus faecalis (GC 4553) ([4]; Enterococcus faecalis (GC 4553), broth dilution, 18 hours at 35° C.): 2 µg/mL (≈ 1.37 µM)
MIC Enterococcus faecalis (GC 4554) ([4]; Enterococcus faecalis (GC 4554), broth dilution, 18 hours at 35° C.): 2 µg/mL (≈ 1.37 µM)
MIC Enterococcus faecalis (GC 6189) ([4]; Enterococcus faecalis (GC 6189), broth dilution, 18 hours at 35° C.): 2 µg/mL (≈ 1.37 µM)
MIC Enterococcus faecium (GC 2243) ([4]; Enterococcus faecium (GC 2243), broth dilution, 18 hours at 35° C.): 2 µg/mL (≈ 1.37 µM)
MIC Enterococcus faecium (GC 4556) ([4]; Enterococcus faecium (GC 4556), broth dilution, 18 hours at 35° C.): 2 µg/mL (≈ 1.37 µM)
MIC Enterococcus faecium (GC 4557) ([4]; Enterococcus faecium (GC 4557), broth dilution, 18 hours at 35° C.): 2 µg/mL (≈ 1.37 µM)
MIC Enterococcus faecalis (ATCC 29212) ([4]; strain ATCC 29212): 2 µg/mL (≈ 1.37 µM)
MIC Enterococcus faecalis (GC 2242) ([4]; strain GC 2242): 2 µg/mL (≈ 1.37 µM)
MIC Enterococcus faecium (GC 2243) ([4]; strain GC 2243): 2 µg/mL (≈ 1.37 µM)
MIC Enterococcus faecalis (GC 2691) [4]: 2 µg/mL (≈ 1.37 µM)
MIC Enterococcus faecalis (GC 3059) ([4]; strain GC 3059): 2 µg/mL (≈ 1.37 µM)
MIC Enterococcus faecalis (GC 4552) ([4]; strain GC 4552): 2 µg/mL (≈ 1.37 µM)
MIC Enterococcus faecalis (GC 4553) ([4]; strain GC 4553): 2 µg/mL (≈ 1.37 µM)
MIC Enterococcus faecalis (GC 4554) ([4]; strain GC 4554): 2 µg/mL (≈ 1.37 µM)
MIC Enterococcus faecium (GC 4556) ([4]; strain GC 4556): 2 µg/mL (≈ 1.37 µM)
MIC Enterococcus faecium (GC 4557) ([4]; strain GC 4557): 2 µg/mL (≈ 1.37 µM)
MIC Enterococcus avium (GC 4558) ([4]; strain GC 4558): 1 µg/mL (≈ 0.685 µM)
MIC Enterococcus faecalis (GC 6189) ([4]; strain GC 6189): 2 µg/mL (≈ 1.37 µM)
median effective dose (ED50), Staphylococcus aureus-SMITH (GC 4543) [5]: 0.1 mg/kg
